{"source": "paper PMC7503848", "about": "(International Journal of Molecular Sciences, 2020)", "molecules": {"B1": {"name": "Myosin A tail (798–818 residues), peptide (peptide)", "chain": "NKNIPSLLRVQAHIRKKMVAQ", "notes": "source: acquired from Genescript (peptide)"}, "B2": {"name": "CFP10: Culture filtrate protein 10 kDa, Mycobacterial protein, positive control partner of ESAT6 (protein)", "chain": "MAEMKTDAATLAQEAGNFERISGDLKTQIDQVESTAGSLQGQWRGAAGTAAQAAVVRFQEAANKQKQELDEISTNIRQAGVQYSRADEEQQQALSSQMGF"}, "B3": {"name": "biotinylated myosin A tail (peptide, UniProt Q8IDR3 798-818, looked up)", "chain": "NKNIPSLLRVQAHIRKKMVAQ", "modifications": "also: biotinylated", "notes": "also called myosin A peptide; MyoA tail"}}, "key": {"myosin A tail [1]": {"test_system": "myosin A tail", "format": "cell-based, Plasmodium falciparum"}, "ESAT6 [2]": {"test_system": "ESAT6", "experiment": "ELISA-based specificity control with unrelated protein ESAT6", "format": "binding, Mycobacterium tuberculosis", "settings": "500 ng ESAT6 coated, test protein overlaid, 450 nm", "text": "(§1) All wells were put up in triplicates."}, "myosin A/MTIP complex [3]": {"test_system": "myosin A/MTIP complex", "experiment": "Bacterial three-hybrid assay, disruption of myosin A/MTIP complex", "format": "cell-based, Plasmodium falciparum", "text": "For bacterial three-hybrid experiments, MyoA-pTRG and MTIP-pBT were used to co-transform R1 competent cells. The resulting co-transformants were checked for the presence of both plasmids by PCR using gene and vector-specific primers (MyoA For/pTRG Rev, MTIP For/pBT Rev). The resulting blue colonies were used to prepare competent cells that were subsequently transformed with ZA1-pMTSA or control pMTSA plasmid and plated on X-gal indicator plates, both in the presence or absence of L-arabinose (2% w/v). The plates were incubated at 30 °C for 48 h. The color of the colonies indicated the formation or disruption of myosin A/MTIP complex. The background and validation of bacterial three-hybrid assay have been described previously.\nAn arabinose gradient assay in liquid culture was performed, as described previously. Briefly, the mid-log phase culture was induced with varying concentrations of L-arabinose (0–4 mM) for 3 h at 37 °C. The cells were pelleted, and the levels of β-galactosidase were measured. E. coli BL21 (DE3) cells were induced with varying concentrations of L-arabinose (as described in the arabinose gradient assay). Whole-cell lysates of a 10 mL culture were used to analyze the expression of ZA1 using an anti-His antibody (1:2000 dilution)."}, "myosin A-MTIP complex": {"target": "myosin A-MTIP complex", "experiment": "Competitive ITC, pre-bound myosin A-MTIP complex into ZA1", "format": "binding, Plasmodium falciparum", "settings": "25 °C, pre-bound myosin A-MTIP complex (150 µM each) in syringe, 10 µM ZA1 in cell", "method": "For the competitive ITC experiment, a pre-bound complex of MyoA-MTIP in an equal molar ratio (150 µM each) was taken in the syringe. The complex was used to titrate ZA1 (10 µM) present in the cell. As a control, the pre-bound MyoA-MTIP complex was titrated in buffer only. All parameters were kept identical to the one-on-one ITC experiment. Origin software was used for data analysis and for calculating binding parameters like stoichiometry (N), binding constant (Kd), and enthalpy change (ƍH)."}, "myosin A/MTIP complex [4]": {"test_system": "myosin A/MTIP complex", "experiment": "Competitive ELISA, inhibition of myosin A/MTIP interaction", "format": "binding, Plasmodium falciparum", "settings": "500 ng myosin A tail coated, MTIP 1 µM, ZA1 0, 0.5, 1, 2, 5 µM, 2 h 37 °C, anti-MTIP, 450 nm, triplicates", "method": "For ELISA-based inhibition of the interaction between MyoA/MTIP complex using ZA1, 500 ng peptide was coated on Maxisorb ELISA plates, followed by overnight blocking at 4 °C. The bound peptide was overlaid with MTIP (1 µM) for 2 h at 37 °C. The plates were washed with wash buffer (1 × PBS, 0.05% Tween-20) thrice and overlaid with increasing concentrations of ZA1 (0 µM, 0.5 µM, 1 µM, 2 µM, 5 µM) for 2 h at 37 °C. […] Optical density was taken at 450 nm. All wells were put in triplicates."}, "myosin A tail [5]": {"target": "myosin A tail", "experiment": "Isothermal titration calorimetry, myosin A tail into ZA1", "format": "binding, Plasmodium falciparum", "settings": "ITC200, 25 °C, phosphate buffer; 150 µM myosin A tail in syringe, 10 µM ZA1 in cell; single site model", "method": "ITC experiments were performed using ITC200 Microcalorimeter (Malvern, UK) at 25 °C in phosphate buffer. The cell and syringe volumes were kept 310 µL and 40 µL, respectively. The syringe was loaded with 100 µM MyoA tail for MyoA/MTIP interaction study and 150 µM for MyoA/ZA1 interaction. The sample cell was loaded with 10 µM each of MTIP and ZA1. MTIP and ZA1 were titrated using MyoA tail in injections of 2 µL each except for the first injection that was 0.4 µL. In between each titration, a 150-s interval for stirring was kept to ensure that the signal returns to baseline. Throughout the experiment, constant stirring at 300 rpm was maintained to ensure proper mixing of reaction components. For both experiments, a corresponding buffer control was also set up in which PBS was taken in the syringe. The enthalpy changes of titrations were measured, and the baseline values were subtracted from the test samples. The data analysis was carried out using Origin software and curve-fitted to obtain stoichiometry (N), dissociation constant (Kd), and enthalpy change (ƍH)."}, "MTIP": {"target": "MTIP (Plasmodium falciparum, UniProt Q8I4W8)", "experiment": "Competitive ITC, pre-bound Myosin A-ZA1 complex into MTIP", "format": "binding", "settings": "complex in syringe, MTIP in cell", "method": "Figure S1: Myosin A tail and expression of MTIP. (a) Synthesized Myosin A tail peptide (2.5 kDa) resolved on Tris-tricine polyacrylamide gel.\n(b) Purified MTIP-His by Ni-NTA Column chromatography. Commassie stained 15% polyacrylamide gel. Lane M: Marker, Lane 1: Purified MTIP. (17.4 kDa). Western blot of purified MTIP-His using anti-MTIP.\nFigure S2: Negative control for ELISA and ITC experiments. (a) 500 ng non-specific Mycobacterial protein ESAT6 was coated on ELISA plates and indicated concentrations of ZA1 and MTIP were overlaid respectively. No interaction was observed between the coated and overlaid proteins. (b) The raw calorimetric data denoting the amount of heat produced following each injection of Myosin A from syringe into cell containing buffer only. No heat changes were observed when Myosin A was added into buffer. (c) Heat changes for competitive binding when pre-bound Myosin A-ZA1 complex is titrated from syringe into MTIP in the cell. […]\nbreak when added into MTIP. […]"}, "myosin A tail [6]": {"test_system": "myosin A tail", "experiment": "ELISA-based interaction assay, ZA1 on coated myosin A tail", "format": "binding, Plasmodium falciparum", "settings": "500 ng myosin A tail coated, ZA1-His 0–2.5 µM overlaid, 2 h 37 °C, anti-His, 450 nm, triplicates", "text": "The interaction between myosin A tail and ZA1 was confirmed through multiple protein–protein interaction studies. […] For this, myosin A tail was coated on the ELSIA plates, followed by overlaying of ZA1. After stringent washing, the binding of overlaid ZA1 protein was detected using an anti-His antibody.\nas §1"}, "[7]": {"target": "Myosin A-pTRGnn (myosin A tail, bacterial two-hybrid fusion) (Plasmodium falciparum) (UniProt Q8IDR3)", "experiment": "two-hybrid; bacterial two-hybrid, liquid β-galactosidase assay, relative Miller units, average of three assays"}, "[8]": {"target": "T1, recombinant MTIP-His (61–204 residues) (Plasmodium falciparum, UniProt Q8I4W8 61-204)", "T1 construct": "source: E. coli BL21 (DE3), purified (Ni-NTA, native conditions, dialysed against PBS); not shown: His6, C-terminal, kept", "T1 sequence": "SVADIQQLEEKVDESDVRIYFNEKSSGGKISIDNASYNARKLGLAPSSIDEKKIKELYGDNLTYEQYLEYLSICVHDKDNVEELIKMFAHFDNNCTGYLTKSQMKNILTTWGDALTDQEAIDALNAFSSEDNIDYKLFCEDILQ", "experiment": "ITC; ITC200, 25 °C, phosphate buffer; MyoA tail in the syringe (100 µM for MTIP, 150 µM for ZA1), 10 µM MTIP or ZA1 in the cell; single site model", "settings": "both partners purified"}, "ESAT6 [9]": {"test_system": "ESAT6", "format": "cell-based, Mycobacterium tuberculosis", "settings": "ESAT6-pTRGnn versus CFP10-pBTnn, average of three independent assays ± standard deviation"}, "ZA1S peptide": {"target": "T2, ZA1S peptide", "T2 construct": "also called shortened ZA1", "T2 chain": "DIDIDIMHE", "experiment": "far-Western, overlay or dot blot; 5 µg ZA1S peptide, BSA and non-specific peptide spotted on nitrocellulose; overlaid with 5 µg/mL biotinylated myosin A tail in 1% BSA/PBST, 2 h, room temperature; anti-biotin antibody", "settings": "both partners purified"}, "[10]": {"settings": "X-gal blue-white selection, DI-EL dicodon library, 30 °C, 48 h"}}, "note": "Read-outs that look alike come from different tables or passages of the source. No end group written: not given here."}
{"molecule": "SGRHVFKELDIELDIDIDIDIDIDIDIELMHDIQLDIELDIDIMHMHDIPGDIDIMHSTMHQLDIELMHPGDIDIQLFKHVAAA [ZA3]", "values": [{"measurement": "Interaction with myosin A tail in library screening", "setting": "myosin A tail [1]; [10]", "value": "positive interactions"}]}
{"molecule": "SGRHVFKPGMHELDIELELDIELDIDIDIELDIDIELDIDIDIDIQLYVDIELMHELDIDIRTELELDIPGELEFDIELDIDIFKHVAAA [ZA2]", "values": [{"measurement": "Interaction with myosin A tail in library screening", "setting": "myosin A tail [1]; [10]", "value": "positive interactions"}]}
{"molecule": "SGRHVFKQLDIDIDIMHELDIELELDIDIDIMHPGDIDIDIDIDIQLDIELDIMHDIDIDIMHMHQLELELDIFKHVAAA [ZA1]", "values": [{"measurement": "Interaction with unrelated protein ESAT6", "setting": "ESAT6 [2]", "value": "no interaction was found"}, {"measurement": "Interaction with myosin A tail in library screening", "setting": "myosin A tail [1]", "value": "positive interactions"}, {"measurement": "Intensity of blue color on bacterial two-hybrid selection plate", "setting": "myosin A tail [1]; X-gal plate, versus the other library hits", "value": "maximum intensity of blue color"}, {"measurement": "Relative enzyme activity (β-galactosidase)", "setting": "myosin A tail [1]; myosin A-pTRGnn versus ZA1-pBTnn, average of three independent assays ± standard deviation", "value": "83.48 ± 0.82", "unit": "Miller units"}, {"measurement": "Colony color change (disruption of myosin A/MTIP complex)", "setting": "myosin A/MTIP complex [3]; E. coli triple co-transformant, X-gal plate with L-arabinose (2% w/v), 30 °C, 48 h", "value": "the color of the colonies changed from blue to white, indicating the disruption of myosin A/MTIP complex"}, {"measurement": "Strength of myosin A/MTIP interaction (β-galactosidase)", "setting": "myosin A/MTIP complex [3]; L-arabinose gradient 0–4 mM, 3 h, 37 °C, average of three independent assays", "value": "A reduction in the strength of interaction was observed with increasing amounts of ZA1"}, {"measurement": "Completeness of myosin A/MTIP disruption", "setting": "myosin A/MTIP complex [3]; bacterial three-hybrid", "value": "we did not find a complete disruption of myosin A/MTIP complex"}, {"measurement": "Kd", "setting": "myosin A-MTIP complex", "value": 57000, "unit": "nM"}, {"measurement": "MTIP bound to myosin A tail", "setting": "myosin A/MTIP complex [4]", "value": "The amount of MTIP bound to myosin A tail reduced with increasing ZA1"}, {"measurement": "Kd", "setting": "myosin A tail [5]", "value": 719, "unit": "nM"}, {"measurement": "Heat changes on titration of pre-bound Myosin A-ZA1 complex into MTIP", "setting": "MTIP", "value": "No heat changes are observed"}, {"measurement": "Interaction with myosin A tail", "setting": "myosin A tail [6]", "value": "positive interaction between myosin A and ZA1 that was concentration-dependent"}]}
{"molecule": "MTIP-pBT (MTIP, bacterial two-hybrid fusion) (from UniProt Q8I4W8 61-204) (domain or fragment)", "values": [{"measurement": "relative enzyme activity (Miller Units)", "setting": "[7]", "value": 96.1, "unit": "Miller Units"}]}
{"molecule": "B1", "values": [{"measurement": "Kd", "setting": "[8]", "value": 452, "unit": "nM"}, {"measurement": "dH", "setting": "[8]", "value": -4.7, "unit": "kcal/mol"}]}
{"molecule": "B2", "values": [{"measurement": "Relative enzyme activity (β-galactosidase), positive control", "setting": "ESAT6 [9]; experiment of Figure 1c", "value": "79.17 ± 1.67", "unit": "Miller Units"}, {"measurement": "Relative enzyme activity (β-galactosidase), positive control", "setting": "ESAT6 [9]; experiment of Figure 2b", "value": "98.02 ± 2.07", "unit": "Miller units"}]}
{"molecule": "B3", "values": [{"measurement": "binding result", "setting": "ZA1S peptide", "value": "binds"}]}
